In patent US20110190365A1, “Insecticidal 4-phenyl-1H-pyrazoles” (Bayer Crop Science AG, priority 2008, published 2011):

Assay: log P by HPLC on a reversed-phase column (C18), EEC Directive 79/831 Annex V.A8
Assay type: physicochemical
Conditions: HCOOH; Table 4, compounds of formula I-A-Q4
Protocol: The stated log P values were determined in accordance with EEC Directive 79/831 Annex V.A8 by HPLC (High Performance Liquid Chromatography) using a reversed-phase column (C18).

Compound	log P (HCOOH)
Nc1c(-c2ccccc2Cl)c(C(F)(F)F)nn1-c1ccc(Cl)cn1 [I-A-Q4-023]	I-A-Q4-023: log P (HCOOH): 4.57
Nc1c(-c2ccc(Cl)cc2)c(C2CC2)nn1-c1ccc(Cl)cn1 [I-A-Q4-024]	I-A-Q4-024: log P (HCOOH): 5.36
CCCc1nn(-c2ccc(Cl)cn2)c(N)c1-c1ccc(Cl)cc1 [I-A-Q4-025]	I-A-Q4-025: log P (HCOOH): 5.51
CCc1nn(-c2ccc(Cl)cn2)c(N)c1-c1ccc(Cl)cc1 [I-A-Q4-026]	I-A-Q4-026: log P (HCOOH): 5.02
CC(C)c1nn(-c2ccc(Cl)cn2)c(N)c1-c1ccc(Cl)cc1 [I-A-Q4-027]	I-A-Q4-027: log P (HCOOH): 5.73
Nc1c(-c2ccc(Cl)cc2)c(-c2ccccc2)nn1-c1ccc(Cl)cn1 [I-A-Q4-028]	I-A-Q4-028: log P (HCOOH): 5.64
Cc1nn(-c2ccc(Cl)cn2)c(N)c1-c1c(Cl)cccc1Cl [I-A-Q4-029]	I-A-Q4-029: log P (HCOOH): 4.05
Cc1nn(-c2ccc(Cl)cn2)c(N)c1-c1cc(Cl)ccc1Cl [I-A-Q4-030]	I-A-Q4-030 :log P (HCOOH): 4.57
Cc1nn(-c2ccc(Cl)cn2)c(N)c1-c1c(F)cccc1Cl [I-A-Q4-031]	I-A-Q4-031: log P (HCOOH): 3.78
Cc1nn(-c2ccc(Cl)cn2)c(N)c1-c1ccccc1Cl [I-A-Q4-032]	I-A-Q4-032: log P (HCOOH): 3.89
Cc1nn(-c2ccc(Cl)cn2)c(N)c1-c1cc(F)ccc1F [I-A-Q4-033]	I-A-Q4-033: log P (HCOOH): 3.84
Cc1nn(-c2ccc(Cl)cn2)c(N)c1-c1cccc(Cl)c1 [I-A-Q4-034]	I-A-Q4-034: log P (HCOOH): 4.40
Cc1nn(-c2ccc(Cl)cn2)c(N)c1-c1ccc(F)cc1F [I-A-Q4-035]	I-A-Q4-035: log P (HCOOH): 3.78
Cc1nn(-c2ccc(Cl)cn2)c(N)c1-c1c(F)cccc1F [I-A-Q4-036]	I-A-Q4-036: log P (HCOOH): 3.58
Cc1nn(-c2ccc(Cl)cn2)c(N)c1-c1ccc(F)cc1Cl [I-A-Q4-037]	I-A-Q4-037: log P (HCOOH): 4.05
Cc1nn(-c2ccc(Cl)cn2)c(N)c1-c1ccc(F)cc1 [I-A-Q4-038]	I-A-Q4-038: log P (HCOOH): 3.84
Cc1nn(-c2ccc(Cl)cn2)c(N)c1-c1ccc(Cl)cc1 [I-A-Q4-039]	I-A-Q4-039: log P (HCOOH): 4.40
Nc1c(-c2cc(F)cc(Cl)c2)c(C(F)(F)F)nn1-c1ccc(Cl)cn1 [I-A-Q4-040]	I-A-Q4-040: log P (HCOOH): 5.29
Nc1c(-c2ccc(Cl)cc2)c(C(F)(F)F)nn1-c1ccc(Cl)cn1 [I-A-Q4-041]	I-A-Q4-041: log P (HCOOH): 4.95
Nc1c(-c2ccc(Br)cc2)c(C(F)(F)F)nn1-c1ccc(Cl)cn1 [I-A-Q4-042]	I-A-Q4-042: log P (HCOOH): 5.22
Nc1c(-c2ccc(Cl)c(Cl)c2)c(C(F)(F)F)nn1-c1ccc(Cl)cn1 [I-A-Q4-043]	I-A-Q4-043: log P (HCOOH): 5.44
Nc1c(-c2ccc(Cl)cc2Cl)c(C(F)(F)F)nn1-c1ccc(Cl)cn1 [I-A-Q4-044]	I-A-Q4-044: log P (HCOOH): 5.02

Compound	log P (HCOOH)
N#Cc1ccc(-c2c(C(F)(F)F)nn(-c3ccc(Cl)cn3)c2N)cc1 [I-A-Q4-045]	I-A-Q4-045: log P (HCOOH): 4.11
Nc1c(-c2c(F)cc(F)cc2F)c(C(F)(F)F)nn1-c1ccc(Cl)cn1 [I-A-Q4-046]	I-A-Q4-046: log P (HCOOH): 4.46
Nc1c(-c2ccc(F)c(Cl)c2)c(C(F)(F)F)nn1-c1ccc(Cl)cn1 [I-A-Q4-047]	I-A-Q4-047: log P (HCOOH): 4.95
Nc1c(-c2ccc(Cl)c(F)c2)c(C(F)(F)F)nn1-c1ccc(Cl)cn1 [I-A-Q4-048]	I-A-Q4-048: log P (HCOOH): 5.02
Nc1c(-c2cccc(F)c2)c(C(F)(F)F)nn1-c1ccc(Cl)cn1 [I-A-Q4-049]	I-A-Q4-049: log P (HCOOH): 4.51
Nc1c(-c2ccc(F)c(F)c2)c(C(F)(F)F)nn1-c1ccc(Cl)cn1 [I-A-Q4-050]	I-A-Q4-050: log P (HCOOH): 4.64
Nc1c(-c2ccc(I)cc2)c(C(F)(F)F)nn1-c1ccc(Cl)cn1 [I-A-Q4-051]	I-A-Q4-051: log P (HCOOH): 5.29
Nc1c(-c2cccc(Br)c2)c(C(F)(F)F)nn1-c1ccc(Cl)cn1 [I-A-Q4-052]	I-A-Q4-052: log P (HCOOH): 5.02
Nc1c(-c2cc(F)c(F)c(F)c2)c(C(F)(F)F)nn1-c1ccc(Cl)cn1 [I-A-Q4-053]	I-A-Q4-053: log P (HCOOH): 4.89
Cc1ccccc1-c1c(C(F)(F)F)nn(-c2ccc(Cl)cn2)c1N [I-A-Q4-054]	I-A-Q4-054: log P (HCOOH): 4.64
Cc1ccc(-c2c(C(F)(F)F)nn(-c3ccc(Cl)cn3)c2N)cc1 [I-A-Q4-055]	I-A-Q4-055: log P (HCOOH): 4.83
Nc1c(-c2ccc(F)cc2F)c(C(F)F)nn1-c1ccc(Cl)cn1 [I-A-Q4-056]	I-A-Q4-056: log P (HCOOH): 3.84
Nc1c(-c2ccc(Cl)cc2)c(C(F)F)nn1-c1ccc(Cl)cn1 [I-A-Q4-057]	I-A-Q4-057: log P (HCOOH): 4.45
Nc1c(-c2ccc(Cl)cc2)c(C(F)(F)C(F)(F)F)nn1-c1ccc(Cl)cn1 [I-A-Q4-058]	I-A-Q4-058: log P (HCOOH): 5.44
Nc1c(-c2cc(Cl)cc(C(F)(F)F)c2)c(C(F)(F)Cl)nn1-c1ccc(Cl)cn1 [I-A-Q4-059]	I-A-Q4-059: log P (HCOOH): 5.81
Cc1nn(-c2ccc(Cl)cn2)c(N)c1-c1ccc(Cl)c(Cl)c1 [I-A-Q4-060]	I-A-Q4-060: log P (HCOOH): 5.02
COc1ccc(-c2c(C)nn(-c3ccc(Cl)cn3)c2N)cc1 [I-A-Q4-061]	I-A-Q4-061: log P (HCOOH): 3.58
CC(C)Cc1nn(-c2ccc(Cl)cn2)c(N)c1-c1ccc(Cl)cc1 [I-A-Q4-062]	I-A-Q4-062: log P (HCOOH): 5.97
COC(=O)c1cnc(-n2nc(C(F)(F)F)c(-c3cc(Cl)cc(Cl)c3)c2N)nc1C(F)(F)F [I-A-Q4-063]	I-A-Q4-063: log P (HCOOH): 4.66
Nc1c(-c2cc(Cl)cc(Cl)c2)c(C(F)(F)F)nn1-c1ccc(C(=O)O)cn1 [I-A-Q4-064]	I-A-Q4-064: log P (HCOOH): 4.23
CCOC(=O)c1ccc(-n2nc(C(F)(F)F)c(-c3ccc(Cl)cc3Cl)c2N)cc1 [I-A-Q4-085]	I-A-Q4-085: log P (HCOOH): 4.57
CCOC(=O)c1ccc(-n2nc(C(F)(F)F)c(-c3cc(Cl)cc(Cl)c3)c2N)cc1 [I-A-Q4-086]	I-A-Q4-086: log P (HCOOH): 4.93

Compound	log P (HCOOH)
Nc1c(-c2cc(Cl)cc(Cl)c2)c(C(F)(F)F)nn1-c1ccc(C(=O)O)cc1 [I-A-Q4-087]	I-A-Q4-087: log P (HCOOH): 3.79
Nc1c(-c2ccc(Cl)cc2)c(C(F)(F)F)nn1-c1ccc(C(=O)O)cc1 [I-A-Q4-088]	I-A-Q4-088: log P (HCOOH): 3.28
Nc1c(-c2ccc(Cl)c(Cl)c2)c(C(F)(F)F)nn1-c1ccc(C(=O)O)cc1 [I-A-Q4-089]	I-A-Q4-089: log P (HCOOH): 3.69
Cc1cc(C)cc(-c2c(C(F)(F)F)nn(-c3ccc(C(=O)O)cc3)c2N)c1 [I-A-Q4-090]	I-A-Q4-090: log P (HCOOH): 3.42
Nc1c(-c2cccc(Br)c2)c(C(F)(F)F)nn1-c1ccc(C(=O)O)cc1 [I-A-Q4-091]	I-A-Q4-091: log P (HCOOH): 3.29
Nc1c(-c2ccc(F)c(F)c2)c(C(F)(F)F)nn1-c1ccc(C(=O)O)cc1 [I-A-Q4-092]	I-A-Q4-092: log P (HCOOH): 3.06
Nc1c(-c2ccc(Cl)c(F)c2)c(C(F)(F)F)nn1-c1ccc(C(=O)O)cc1 [I-A-Q4-093]	I-A-Q4-093: log P (HCOOH): 3.39
Nc1c(-c2ccc(F)c(Cl)c2)c(C(F)(F)F)nn1-c1ccc(C(=O)O)cc1 [I-A-Q4-094]	I-A-Q4-094: log P (HCOOH): 3.31
Nc1c(-c2ccc(Cl)cc2Cl)c(C(F)(F)F)nn1-c1ccc(C(=O)O)cc1 [I-A-Q4-095]	I-A-Q4-095: log P (HCOOH): 3.44
Nc1c(-c2cccc(Cl)c2)c(C(F)(F)F)nn1-c1ccc(C(=O)O)cc1 [I-A-Q4-096]	I-A-Q4-096: log P (HCOOH): 3.20
Nc1c(-c2cccc(F)c2)c(C(F)(F)F)nn1-c1ccc(C(=O)O)cc1 [I-A-Q4-097]	I-A-Q4-097: log P (HCOOH): 2.88
Nc1c(-c2ccc(Br)cc2)c(C(F)(F)F)nn1-c1ccc(C(=O)O)cc1 [I-A-Q4-098]	I-A-Q4-098: log P (HCOOH): 3.35
Nc1c(-c2cc(F)c(F)c(F)c2)c(C(F)(F)F)nn1-c1ccc(C(=O)O)cc1 [I-A-Q4-099]	I-A-Q4-099: log P (HCOOH): 3.32
Nc1c(-c2cc(F)cc(Cl)c2)c(C(F)(F)F)nn1-c1ccc(C(=O)O)cc1 [I-A-Q4-100]	I-A-Q4-100: log P (HCOOH): 3.32
Cc1ccccc1-c1c(C(F)(F)F)nn(-c2ccc(C(=O)O)cc2)c1N [I-A-Q4-101]	I-A-Q4-101: log P (HCOOH): 2.94
N#Cc1cc(-n2nc(C(F)(F)F)c(-c3cc(Cl)cc(Cl)c3)c2N)ccc1I [I-A-Q4-102]	I-A-Q4-102: log P (HCOOH): 5.94
N#Cc1cc(-n2nc(C(F)(F)F)c(-c3cc(Cl)cc(Cl)c3)c2N)ccc1F [I-A-Q4-103]	I-A-Q4-103: log P (HCOOH): 4.44
COC(=O)c1ccc(-n2nc(C(F)(F)F)c(-c3cc(Cl)cc(Cl)c3)c2N)cc1Cl [I-A-Q4-104]	I-A-Q4-104: log P (HCOOH): 5.07
Nc1c(-c2cc(Cl)cc(Cl)c2)c(C(F)(F)F)nn1-c1ccc(F)c(C(F)(F)F)c1 [I-A-Q4-105]	I-A-Q4-105: log P (HCOOH): 5.25
Nc1c(-c2cc(Cl)cc(Cl)c2)c(C(F)(F)F)nn1-c1ccc(F)c(F)c1 [I-A-Q4-109]	I-A-Q4-109: log P (HCOOH): 4.77
